Measurements reported in ChEMBL document CHEMBL5523721, “Derivatives of D(-) glutamine-based MMP-2 inhibitors as an effective remedy for the management of chronic myeloid leukemia-Part-I: Synthesis, biological screening and in silico binding interaction analysis” (Eur J Med Chem, 2024).
pIC50: −log10 of the molar value.

Key:
U-87 MG = experiment: Antiproliferative activity against human U-87 MG cells incubated for 72 hrs by MTT assay
HT-1080 = experiment: Antiproliferative activity against human HT-1080 cells incubated for 72 hrs by MTT assay; conditions: HT-1080, 72 h
[1] = Cytotoxicity against HEK293 cells incubated for 72 hrs by MTT assay; assay type: toxicity, cell-based; conditions: human
K562 [2] = experiment: Antiproliferative activity against human K562 cells; assay type: functional, cell-based
A549 = experiment: cells; conditions: Homo sapiens, A549, 72 h
Description: Antiproliferative activity against human A549 cells incubated for 72 hrs by MTT assay

K562 [3] = experiment: Antiproliferative activity against human K562 cells incubated for 72 hrs by PrestoBlue assay; conditions: K562, 72 h

Work on `CCCCCNC(=O)CC[C@@H](NS(=O)(=O)c1ccc([N+](=O)[O-])cc1)C(=O)O` yielded a pIC50 (U-87 MG) of 4.85, a pIC50 (HT-1080) of 4.69 and an IC50 at 72 h [1] of 254 µM. The pIC50 (K562 [2]) was 5.17 and the pIC50 (A549) was 4.90.

`Cc1ccc(S(=O)(=O)N[C@H](CCC(N)=O)C(=O)O)cc1` gave a pIC50 (K562 [3]) of 5.64, a pIC50 (U-87 MG) of 4.70 and a pIC50 (HT-1080) of 4.74. For the same compound, the IC50 at 72 h [1] was 279 µM and the pIC50 (A549) was 5.05.

In the case of `CC(C)CNC(=O)CC[C@@H](NS(=O)(=O)c1ccc([N+](=O)[O-])cc1)C(=O)O`, the pIC50 (K562 [3]) was 5.09, the pIC50 (U-87 MG) was 4.41 and the pIC50 (HT-1080) was 4.79. It also gave an IC50 at 72 h [1] of 217 µM and a pIC50 (A549) of 4.96.

In the case of `CNC(=O)CC[C@@H](NS(=O)(=O)c1ccc(C)cc1)C(=O)O`, the pIC50 (K562 [3]) was 5.63, the pIC50 (U-87 MG) was 4.54 and the pIC50 (HT-1080) was 4.60. It also gave an IC50 at 72 h [1] of 203 µM and a pIC50 (A549) of 5.29.

`CCNC(=O)CC[C@@H](NS(=O)(=O)c1ccc(C)cc1)C(=O)O` showed a pIC50 (K562 [3]) of 5.60, a pIC50 (U-87 MG) of 4.49 and a pIC50 (HT-1080) of 4.78. For the same compound, the IC50 at 72 h [1] was 491 µM and the pIC50 (A549) was 5.32.

`CCCCCNC(=O)CC[C@@H](NS(=O)(=O)c1ccc(C)cc1)C(=O)O` showed a pIC50 (K562 [3]) of 5.08, a pIC50 (U-87 MG) of 4.48 and a pIC50 (HT-1080) of 4.56. It also gave an IC50 at 72 h [1] of 408 µM and a pIC50 (A549) of 4.84.

In the case of `CCCCNC(=O)CC[C@@H](NS(=O)(=O)c1ccc(C)cc1)C(=O)O`, the pIC50 (K562 [3]) was 5.43, the pIC50 (U-87 MG) was 4.77 and the pIC50 (HT-1080) was 4.59. For the same compound, the IC50 at 72 h [1] was 391 µM and the pIC50 (A549) was 4.71.

`COc1ccc(S(=O)(=O)N(CC(=O)NO)CC(C)C)cc1` showed a pIC50 (K562 [3]) of 5.32 and a pIC50 (A549) of 4.87.
